Assay results: ChEMBL document CHEMBL1201862, “PubChem BioAssay data set” (2004)
Calls of active or inactive are those of the source.

Tests used:
[1] = target: T1, Voltage-gated N-type calcium channel alpha-1B subunit/Amyloid beta A4 precursor protein-binding family A member 1 (Homo sapiens, UniProt Q00975+Q02410); type: protein assay
[2] = target: T1, Voltage-gated N-type calcium channel alpha-1B subunit/Amyloid beta A4 precursor protein-binding family A member 1; type: protein assay; remark: listed apart in the source
[3] = target: T2, Hexokinase HKDC1 (Homo sapiens, UniProt Q2TB90); assay: HKDC1 hexokinase activators, dose response, biochemical, W721R variant (AID 504730); type: functional
T2 sequence (Q2TB90 whole entry): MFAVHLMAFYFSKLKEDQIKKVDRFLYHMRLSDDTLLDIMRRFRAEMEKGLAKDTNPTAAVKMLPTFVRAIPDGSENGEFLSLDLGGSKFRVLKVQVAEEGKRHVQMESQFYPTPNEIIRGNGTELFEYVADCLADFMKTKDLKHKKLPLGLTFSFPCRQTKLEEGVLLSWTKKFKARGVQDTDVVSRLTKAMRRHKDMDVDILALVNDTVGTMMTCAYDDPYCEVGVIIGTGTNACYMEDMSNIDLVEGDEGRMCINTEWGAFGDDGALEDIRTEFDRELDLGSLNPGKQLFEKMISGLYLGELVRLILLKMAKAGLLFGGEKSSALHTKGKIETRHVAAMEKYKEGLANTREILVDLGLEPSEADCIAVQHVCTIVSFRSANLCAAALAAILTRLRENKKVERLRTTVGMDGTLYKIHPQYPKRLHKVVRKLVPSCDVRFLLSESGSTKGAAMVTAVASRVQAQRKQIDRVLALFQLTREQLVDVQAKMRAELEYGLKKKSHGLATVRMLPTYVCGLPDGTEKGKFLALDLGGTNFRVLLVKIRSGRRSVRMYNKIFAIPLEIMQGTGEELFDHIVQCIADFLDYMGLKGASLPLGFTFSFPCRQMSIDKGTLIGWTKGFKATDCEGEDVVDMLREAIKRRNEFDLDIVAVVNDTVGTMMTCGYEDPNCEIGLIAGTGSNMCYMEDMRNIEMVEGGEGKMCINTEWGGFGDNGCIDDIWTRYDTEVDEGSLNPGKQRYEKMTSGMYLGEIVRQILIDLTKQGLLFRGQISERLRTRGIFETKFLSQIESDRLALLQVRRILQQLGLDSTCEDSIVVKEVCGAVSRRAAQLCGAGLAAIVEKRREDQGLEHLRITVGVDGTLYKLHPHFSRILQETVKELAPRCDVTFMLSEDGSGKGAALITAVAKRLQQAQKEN

[4] = target: T3, Hexokinase-1 (Homo sapiens, UniProt P19367); assay: hexokinase 1 activators, dose response, selectivity assay for HKDC1 activator project, biochemical (AID 504762); type: functional
T3 sequence (P19367 whole entry): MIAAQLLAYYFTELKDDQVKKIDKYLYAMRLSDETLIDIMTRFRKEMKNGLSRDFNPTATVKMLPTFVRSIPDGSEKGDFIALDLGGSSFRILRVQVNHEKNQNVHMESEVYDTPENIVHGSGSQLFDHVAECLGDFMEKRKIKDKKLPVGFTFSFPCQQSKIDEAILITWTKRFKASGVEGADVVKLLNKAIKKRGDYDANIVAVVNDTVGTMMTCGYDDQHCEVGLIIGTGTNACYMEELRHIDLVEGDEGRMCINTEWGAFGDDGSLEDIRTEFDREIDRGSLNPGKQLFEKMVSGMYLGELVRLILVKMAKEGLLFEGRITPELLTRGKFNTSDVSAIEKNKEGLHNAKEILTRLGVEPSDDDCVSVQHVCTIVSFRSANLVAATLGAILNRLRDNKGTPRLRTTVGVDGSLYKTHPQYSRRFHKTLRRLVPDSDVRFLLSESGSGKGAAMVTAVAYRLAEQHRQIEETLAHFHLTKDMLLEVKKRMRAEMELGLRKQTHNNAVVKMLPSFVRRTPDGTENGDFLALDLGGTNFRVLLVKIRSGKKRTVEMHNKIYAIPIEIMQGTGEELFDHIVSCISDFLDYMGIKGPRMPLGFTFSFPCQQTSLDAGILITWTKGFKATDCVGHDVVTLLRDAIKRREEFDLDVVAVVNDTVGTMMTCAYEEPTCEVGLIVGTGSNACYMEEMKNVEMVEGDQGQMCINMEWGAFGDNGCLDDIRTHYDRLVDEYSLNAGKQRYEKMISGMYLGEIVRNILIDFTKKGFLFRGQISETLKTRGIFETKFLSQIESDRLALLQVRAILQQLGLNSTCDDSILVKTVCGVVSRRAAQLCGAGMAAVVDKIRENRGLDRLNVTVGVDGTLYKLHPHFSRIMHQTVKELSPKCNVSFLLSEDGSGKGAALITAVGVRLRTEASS

[5] = HepG2 cell cytotoxicity, dose response, cytotoxicity control for Shn3 inhibitor project, CellTiter-Glo, cherry-picked (AID 624134); type: functional, cell-based
[6] = Shn3 3'UTR reporter inhibitors, dose response, cell-based, Clone20 osteoblasts, firefly luciferase, cherry-picked (AID 624132); type: functional;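 further: firefly luciferase luminescence from reporter carrying the Shn3 3'UTR in osteoblasts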
[7] = target: Heat shock protein HSP 90-alpha (Homo sapiens, UniProt P07900); type: functional, organism-based
[8] = cytotoxicity toward NIH3T3 fibroblasts, dose response, counter-screen, cell-based, ATP luminescence, mouse fibroblasts (AID 2010); type: functional;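 further: cells exposed to compound for about 90 hours before reading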
[9] = system: Streptococcus sp. 'group A'; assay: growth inhibition of control SK(-) GAS strain, dose response, counter-screen for streptokinase expression inhibitor project, luminescence, kanamycin, BacTiterGlo, confirmation (AID 1900); type: functional, organism-based
[10] = system: Streptococcus; assay: Group A Streptococcus viability loss, dose response, counter-screen for streptokinase expression inhibitor project, luminescence, BacTiterGlo (AID 1915); type: functional, organism-based;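 further: potency for reduction of bacterial viability or growth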
[11] = control 3'UTR Renilla luciferase suppression, dose response, counter-screen for Shn3 inhibitor project, cell-based, Clone20-Shn3RL, cherry-picked (AID 624133); type: functional
[12] = inhibitors of intracellular T. cruzi replication, confirmation, NIH3T3 host cells, beta-gal luminescence (AID 2044); type: functional, cell-based;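 further: intracellular parasites grown in NIH/3T3 mouse fibroblasts as host cells; luminescent beta-galactosidase reporter signal from transgenic T. cruzi replicating inside host cells; inhibitors lower the luminescence signal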
[13] = Luminescence Cell-Based Dose Response HTS to Identify Inhibitors of 5'UTR Stem-Loop Driven Prion Protein mRNA Translation in H4 Neuroglioblastoma Cells. [Related pubchem assays: 1827 (Project Summary), 1813 (Primary HTS)]; type: functional
[14] = inhibitors of firefly luciferase expression or activity, dose response, H4 neuroglioma cells, luminescence (AID 1990); type: functional, cell-based
[15] = insulin promoter down-regulators in MIN6 cells, imaging, high-content screening, mouse beta cells (AID 1628); type: functional
[16] = inhibitors of SNCA 5'UTR-driven reporter translation, confirmation, H4 neuroglioma cells, luminescence (AID 1988); type: functional, cell-based
[17] = target: T4, Latent membrane protein 1 (Human herpesvirus 4 (strain B95-8), UniProt P03230); assay: TES1-eGFP NF-kB reporter inhibition versus Tet-On dsRED, dose response, selectivity assay for LMP1 NF-kB inhibitor project, imaging, HEK293T, dual-color eGFP/dsRED, cherry-picks (AID 588398); type: functional, cell-based
T4 sequence (P03230 whole entry): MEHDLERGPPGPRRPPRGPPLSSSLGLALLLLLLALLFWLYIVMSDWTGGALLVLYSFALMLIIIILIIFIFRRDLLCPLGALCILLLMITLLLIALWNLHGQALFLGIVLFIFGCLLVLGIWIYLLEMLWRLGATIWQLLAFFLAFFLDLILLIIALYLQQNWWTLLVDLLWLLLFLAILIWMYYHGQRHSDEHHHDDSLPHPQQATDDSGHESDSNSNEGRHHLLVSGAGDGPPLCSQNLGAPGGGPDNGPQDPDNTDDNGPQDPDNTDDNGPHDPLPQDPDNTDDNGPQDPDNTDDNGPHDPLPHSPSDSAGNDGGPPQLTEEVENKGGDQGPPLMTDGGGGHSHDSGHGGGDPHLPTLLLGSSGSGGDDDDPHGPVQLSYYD

[18] = cytotoxicity in MIN6 insulinoma cells, dose response, cytotoxicity control, cell-based, mouse insulinoma (AID 2122); type: functional;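 further: confirmatory high-throughput counterscreen run to flag cytotoxic compounds; mouse MIN-6 beta cells carrying an insulin promoter eGFP reporter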
[19] = cells; type: functional, cell-based
[20] = system: HEK293; assay: inhibitors of LMP1-driven NF-kB reporter, dose response, cell-based, HEK293, luciferase, cherry-pick (AID 588343); type: functional; details: Homo sapiens
[21] = cells; type: functional, cell-based; remark: listed apart in the source
[22] = target: Cytochrome P450 2D6 (Homo sapiens, UniProt P10635);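 further: CYP2D6 member of a cytochrome P450 panel assay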
Sequence of Cytochrome P450 2D6 (P10635 whole entry): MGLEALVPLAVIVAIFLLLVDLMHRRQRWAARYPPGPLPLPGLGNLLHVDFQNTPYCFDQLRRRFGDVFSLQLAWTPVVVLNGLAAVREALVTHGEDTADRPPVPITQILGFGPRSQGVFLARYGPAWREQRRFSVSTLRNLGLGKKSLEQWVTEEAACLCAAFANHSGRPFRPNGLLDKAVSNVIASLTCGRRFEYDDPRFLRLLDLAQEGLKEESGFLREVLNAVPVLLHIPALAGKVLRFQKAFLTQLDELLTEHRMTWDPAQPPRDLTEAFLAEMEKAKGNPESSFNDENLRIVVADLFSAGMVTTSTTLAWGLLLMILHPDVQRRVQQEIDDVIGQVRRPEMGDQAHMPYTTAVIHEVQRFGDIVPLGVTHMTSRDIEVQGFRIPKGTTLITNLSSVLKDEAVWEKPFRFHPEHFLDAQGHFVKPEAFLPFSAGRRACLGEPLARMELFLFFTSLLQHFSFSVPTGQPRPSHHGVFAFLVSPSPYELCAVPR

[23] = system: HT-1080; assay: cytotoxicity in HT1080 fibrosarcoma cells, cell-based, fluorescence readout (AID 620); type: functional; details: Homo sapiens
[24] = target: Luciferin 4-monooxygenase (Photinus pyralis, UniProt P08659); assay: Counter Screen for Luciferase-based Assay Positives. [Related pubchem assays: 620, 618, 411 ]
Sequence of Luciferin 4-monooxygenase (P08659 whole entry): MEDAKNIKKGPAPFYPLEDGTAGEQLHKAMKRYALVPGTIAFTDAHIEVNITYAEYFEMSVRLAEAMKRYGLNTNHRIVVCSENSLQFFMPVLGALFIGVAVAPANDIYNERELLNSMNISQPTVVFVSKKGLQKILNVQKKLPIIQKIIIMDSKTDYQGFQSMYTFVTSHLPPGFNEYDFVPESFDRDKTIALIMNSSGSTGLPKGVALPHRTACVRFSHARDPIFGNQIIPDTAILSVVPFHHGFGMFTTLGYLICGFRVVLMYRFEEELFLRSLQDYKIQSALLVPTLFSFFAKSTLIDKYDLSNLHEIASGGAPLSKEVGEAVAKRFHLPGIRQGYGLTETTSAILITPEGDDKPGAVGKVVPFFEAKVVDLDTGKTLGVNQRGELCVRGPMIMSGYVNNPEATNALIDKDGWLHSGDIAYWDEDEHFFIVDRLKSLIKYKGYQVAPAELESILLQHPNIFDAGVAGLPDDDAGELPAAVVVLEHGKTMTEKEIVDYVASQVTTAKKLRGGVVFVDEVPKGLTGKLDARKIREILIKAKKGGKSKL

[25] = system: A-375; assay: A375 melanoma cell viability reduction, dose response, counter-screen for MITF modulator project, cherry-pick samples, set 2 (AID 540335); type: functional, cell-based; details: Homo sapiens
[26] = system: A-375; assay: MITF: Counter assay: A375 proliferation Measured in Cell-Based System Using Plate Reader - 2084-03_Inhibitor_Dose_DryPowder_Activity. [Related pubchem assays (depositor defined):AID488944]; type: functional; details: Homo sapiens
[27] = target: Troponin, cardiac muscle (Homo sapiens, UniProt P19429+P45379+P63316); assay: Fluorescence-based biochemical high throughput dose response assay for activators of the calcium sensitivity of cardiac Regulated Thin Filaments (RTF). [Related pubchem assays (depositor defined):AID493008, AID493018, AID504382, AID504383]; type: protein-complex assay

T1 sequence (Q00975 whole entry): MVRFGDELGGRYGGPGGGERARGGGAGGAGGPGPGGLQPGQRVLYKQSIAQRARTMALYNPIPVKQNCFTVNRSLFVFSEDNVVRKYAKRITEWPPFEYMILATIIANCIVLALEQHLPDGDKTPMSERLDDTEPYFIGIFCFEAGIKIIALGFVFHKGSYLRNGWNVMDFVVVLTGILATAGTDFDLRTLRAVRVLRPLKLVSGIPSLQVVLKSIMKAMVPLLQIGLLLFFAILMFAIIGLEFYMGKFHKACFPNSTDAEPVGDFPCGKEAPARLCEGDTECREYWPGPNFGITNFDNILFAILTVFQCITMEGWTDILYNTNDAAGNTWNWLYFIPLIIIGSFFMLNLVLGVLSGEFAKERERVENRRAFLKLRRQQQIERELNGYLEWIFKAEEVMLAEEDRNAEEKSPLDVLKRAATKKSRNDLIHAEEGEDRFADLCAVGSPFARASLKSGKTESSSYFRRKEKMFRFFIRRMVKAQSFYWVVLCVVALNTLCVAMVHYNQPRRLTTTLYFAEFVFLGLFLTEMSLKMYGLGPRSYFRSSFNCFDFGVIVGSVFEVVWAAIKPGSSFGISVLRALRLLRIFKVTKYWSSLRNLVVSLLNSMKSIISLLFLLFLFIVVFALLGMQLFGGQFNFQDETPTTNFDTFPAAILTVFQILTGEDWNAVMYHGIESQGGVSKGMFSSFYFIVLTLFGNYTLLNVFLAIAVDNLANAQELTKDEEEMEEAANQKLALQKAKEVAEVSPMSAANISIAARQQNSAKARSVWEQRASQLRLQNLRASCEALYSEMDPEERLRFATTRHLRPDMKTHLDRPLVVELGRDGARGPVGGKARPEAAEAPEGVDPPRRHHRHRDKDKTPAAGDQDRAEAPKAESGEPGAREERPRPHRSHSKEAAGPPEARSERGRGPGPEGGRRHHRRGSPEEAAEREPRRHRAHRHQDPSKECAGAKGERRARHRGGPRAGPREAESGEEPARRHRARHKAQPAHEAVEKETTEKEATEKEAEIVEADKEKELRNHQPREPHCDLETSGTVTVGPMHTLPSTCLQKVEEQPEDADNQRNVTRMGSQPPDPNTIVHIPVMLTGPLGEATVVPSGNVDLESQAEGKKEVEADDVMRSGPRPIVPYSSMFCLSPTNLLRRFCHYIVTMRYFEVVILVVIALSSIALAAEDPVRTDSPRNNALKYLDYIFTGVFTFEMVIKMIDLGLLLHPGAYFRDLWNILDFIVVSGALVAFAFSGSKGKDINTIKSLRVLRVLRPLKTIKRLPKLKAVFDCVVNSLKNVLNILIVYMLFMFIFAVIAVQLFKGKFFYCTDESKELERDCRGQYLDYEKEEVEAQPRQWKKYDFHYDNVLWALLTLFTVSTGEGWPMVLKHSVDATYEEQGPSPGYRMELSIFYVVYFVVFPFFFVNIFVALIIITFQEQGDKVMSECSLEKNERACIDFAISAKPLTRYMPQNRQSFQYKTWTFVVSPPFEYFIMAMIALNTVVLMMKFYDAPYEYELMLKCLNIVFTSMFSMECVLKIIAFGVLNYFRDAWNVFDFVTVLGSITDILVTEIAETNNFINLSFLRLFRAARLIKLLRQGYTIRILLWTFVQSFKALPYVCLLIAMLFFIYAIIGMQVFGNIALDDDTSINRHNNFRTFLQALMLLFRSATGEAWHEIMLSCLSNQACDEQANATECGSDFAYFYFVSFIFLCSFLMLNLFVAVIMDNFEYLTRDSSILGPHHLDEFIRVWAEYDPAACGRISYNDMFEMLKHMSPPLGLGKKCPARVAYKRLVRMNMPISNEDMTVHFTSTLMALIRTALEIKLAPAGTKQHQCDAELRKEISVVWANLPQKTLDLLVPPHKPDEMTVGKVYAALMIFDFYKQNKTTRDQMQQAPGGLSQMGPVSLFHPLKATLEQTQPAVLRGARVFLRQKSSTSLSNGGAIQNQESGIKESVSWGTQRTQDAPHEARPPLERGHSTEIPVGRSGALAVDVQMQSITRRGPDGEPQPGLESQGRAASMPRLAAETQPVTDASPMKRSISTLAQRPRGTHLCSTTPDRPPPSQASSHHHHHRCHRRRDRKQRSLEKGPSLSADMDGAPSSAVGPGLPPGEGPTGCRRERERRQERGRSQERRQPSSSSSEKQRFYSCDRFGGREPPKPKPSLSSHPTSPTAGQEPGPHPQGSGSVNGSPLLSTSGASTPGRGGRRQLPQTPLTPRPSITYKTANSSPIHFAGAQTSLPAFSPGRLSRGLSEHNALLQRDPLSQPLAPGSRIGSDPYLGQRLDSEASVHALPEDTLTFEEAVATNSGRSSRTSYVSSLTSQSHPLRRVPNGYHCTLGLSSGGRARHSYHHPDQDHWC
T1 sequence (Q02410 whole entry): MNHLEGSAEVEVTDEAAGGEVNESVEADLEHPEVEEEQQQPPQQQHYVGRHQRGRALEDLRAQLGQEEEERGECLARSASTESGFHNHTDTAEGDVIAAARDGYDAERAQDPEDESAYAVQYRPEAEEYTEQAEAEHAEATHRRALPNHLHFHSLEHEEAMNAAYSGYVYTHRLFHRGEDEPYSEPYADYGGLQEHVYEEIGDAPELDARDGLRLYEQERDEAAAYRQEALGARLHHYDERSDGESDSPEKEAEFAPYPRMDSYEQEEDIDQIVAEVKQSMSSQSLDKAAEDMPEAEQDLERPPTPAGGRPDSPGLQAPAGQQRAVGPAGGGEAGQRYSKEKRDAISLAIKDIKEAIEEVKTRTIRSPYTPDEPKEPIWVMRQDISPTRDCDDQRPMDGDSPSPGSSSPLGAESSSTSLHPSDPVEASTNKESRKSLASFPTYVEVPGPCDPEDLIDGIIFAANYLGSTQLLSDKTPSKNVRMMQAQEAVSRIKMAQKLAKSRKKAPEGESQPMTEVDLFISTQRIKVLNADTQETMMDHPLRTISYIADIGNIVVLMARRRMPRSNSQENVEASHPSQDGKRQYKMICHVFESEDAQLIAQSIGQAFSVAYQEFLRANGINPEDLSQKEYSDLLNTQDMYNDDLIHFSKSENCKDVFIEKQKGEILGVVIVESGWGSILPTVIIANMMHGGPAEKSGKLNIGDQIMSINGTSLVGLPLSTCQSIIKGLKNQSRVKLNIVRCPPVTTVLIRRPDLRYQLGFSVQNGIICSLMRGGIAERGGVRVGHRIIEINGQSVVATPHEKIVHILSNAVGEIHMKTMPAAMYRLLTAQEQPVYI

## O=C(NCCO)c1cc(-c2cc(C(=O)NCCO)c3ccccc3n2)nc2ccccc12
[1]
  IC50: > 50 µM (inactive)
[2]
  IC50: 6.83 µM (active)

## COc1ccc(/C=C/C(=O)NC(=S)NNC(=O)c2cnccn2)cc1
[3]
  EC50: 2.23 µM (active)
[4]
  EC50: > 80 µM (inactive)
[5]
  AC50: 42.4 µM (active)
[6]
  AC50: 15.4 µM (active)
[7]
  AC50: 1.95 µM (active)
[8]
  EC50: 15.2 µM (active)
[9]
  EC50: 4.07 µM (active)
[10]
  EC50: 6.88 µM (active)
[11]
  AC50: 2.05 µM (active)
[12]
  EC50: 0.955 µM (active)

## O=C(CCc1ccccc1)NC(c1cccs1)c1cc(Cl)c2cccnc2c1O (stereo not given)
[13]
  EC50: 0.219 µM (active)
[14]
  EC50: 9.65 µM (active)
[15]
  IC50: 1.77 µM (active)
[16]
  EC50: 4.12 µM (inconclusive)
[7]
  AC50: 16.9 µM (active)
[8]
  EC50: 1.61 µM (active)
[17]
  AC50: 10.2 µM (active)
[18]
  IC50: 1.78 µM (active)
[19]
  EC50: 9.12 µM (active)
[20]
  AC50: 9.35 µM (active)
[21]
  EC50: > 350 µM (not active)
[12]
  EC50: 0.536 µM (active)

## CCNC1=NN=C(c2ccc(C)cc2)CS1
[3]
  EC50: 51.6 µM (inactive)
[22]
  AC50: 14.1 µM (inconclusive)
[4]
  EC50: 63.1 µM (inactive)
[23]
  EC50: > 50 µM (not active)
[24]
  EC50: 1.03 µM (active)

## COc1ccc(C(=O)CCNc2ccc(F)cc2)cc1
[25]
  AC50: > 35 µM (active)
[26]
  AC50: > 35 µM (active)
[19]
  EC50: > 350 µM (not active)

## CCOC(=O)c1cc(-c2ccc(OC)cc2)[nH]n1
[25]
  AC50: > 35 µM (active)
[26]
  AC50: > 35 µM (active)

## c1ccc(Cn2c(-c3ccccc3)nc3nc4ccccc4nc32)cc1
[27]
  EC50: > 71.5 µM (inactive)
